Reference: patent US20180022734A1 (Sound Biopharmaceuticals Ltd., priority 2015, published 2018)
Like-named read-outs stand apart in the source and are kept apart here.

Key:
[1] = Stability of compounds 1 and 2 in MeOH stock solution and with biomass; assay type: physicochemical
Text: No prodrug was detected in organs except for spleen during processing. […] The prodrugs may be converted to Sunitinib or other metabolite during processing or in vivo.

[2] = system: A549; NCI-H460; 786-O; Caki-1; HT-29; MCF-7; assay: 72 hour cytotoxicity (CCK8) in different cell lines; assay type: cell-based, human
Text: A549 human non-small cell lung cancer cell line, NCI-H460 human non-small cell lung cancer cell line, 786-O human renal cell line, Caki-1 human renal cell line, HT-29 human colon cancer cell line, MDA-MB-231 human breast cancer cell line, and MCF-7 human breast cancer cell line was purchased from Chinese Academy of Science Shanghai Branch. PLC/PRF-5 human hepatoma cell line and Hepal-6 mouse hepatoma cell line were obtained from Institute of Biochemistry and Cell Biology, SIBS, CAS (SIBCB). Cell lines A549, Caki-1, HT-29, MDA-MB-231, MCF-7, PLC/PRF-5 and Hepal-6 were cultured in DMEM medium (Gibco, Life Technologies, China) and cell lines NCI-H460 and 786-O were cultured in RPMI-1640 medium (Gibco, Life Technologies, China). 10% HI fetal bovine serum was purchased from Gibco, Life Technologies, USA and 1% penicillin/streptomycin was obtained from Hyclone.
(§1) Approx. 2,000 cells in 50 μL complete medium were plated on each well of a 96-well plate and incubated at 37° C., 5% CO2 overnight. Drugs at concentrations of 0.02 to 10 μM were dissolved in 0.1% DMSO, followed by addition into each well. After incubation for 72 hours, 10 μL CCK8 (Dojindo) was added into each well, followed by incubation at 37° C. for another 4 hours. The OD values were obtained by TECAN Microplate Reader at 450 nm.
(§2) For in vitro tests, compounds were directly dissolved in 10 mM DMSO and stored at −20° C. For in vivo tests, the compounds were dissolved in DMSO and neutralized by Tween 80 (DMSO:Tween=1:1) and further neutralized by PBS (pH 7.4). The final concentrations of DMSO and Tween-80 were 5%.

in vivo [3] = assay: in vivo; set-up: AUCiv: unit not given beside the values; conditions: mouse, in vivo
Text: Relative Exposure(RE)=AUCi sample/AUCi control
AUCi—area under curve for the i^th organ or tissue; RE>1 indicates targeting at the organ or tissue, with larger RE indicating greater targeting; RE≦1 indicates non-targeting.
RTE refers to the multiple of the percent of drug content in a tissue of sample group with respect to total drug amount in the body vs. that in a control group. Positive RTE values indicate enhanced targeting effects and the more positive the more the multiple of enhancement and the more the enhanced targeting. In contrast, negative RTE values indicate reduced targeting effects. Value 0 indicate no influence to the tissue.
0.083 h, 0.25 h, 0.5 h, 1 h, 3 h, 8 h post injection, blood was taken by eyeball removal and the mice were sacrificed by cervical dislocation. Tissues were perfused with normal saline and livers and kidneys were removed and cleaned with normal saline. The blood samples were centrifuged to obtain supernatants and stored at −20° C. 50 μL plasma sample and 50 μL internal standard (clozapine) working solution was vortexed with 300 μL MeOH and then centrifuged. 150 μL upper organic phase was obtained and mixed with 150 μL water, followed by centrifugation. 10 μL supernatant was sampled for analysis. The tissue samples were weighted and mixed homogeneously with 10 times weight of water. Since the samples were 10-time diluted, the concentration of the tissue would be 10 times the results determined. The heart tissue was 5-time diluted. 100 μL homogenate was mixed with 50 μL internal standard (clozapine) working solution and 300 μL MeOH and then centrifuged. 150 μL upper organic phase was obtained and mixed with 150 μL water, followed by centrifugation. 10 μL supernatant was sampled for analysis.

cancer cell xenograft = assay: Pharmacodynamic tests on mice xenograft transplantation model; assay type: in vivo; conditions: intraperitoneally injected 1.5, 7.5, 30 mg/kg once a day for 2 weeks
Description: as §2
5×10^6 cancer cells were subcutaneously injected to the right side of mouse. Drug was intraperitoneally injected at dosages of 1.5 mg/kg, 7.5 mg/kg, 30 mg/kg to the mice, once a day, for 2 weeks when average tumor size reached 75 to 150 mm^3. The size of the tumor was measured every other day. […] Compound 1 had less efficacy.
We then performed the test through oral route. 5×10^6 cancer cells were subcutaneously injected to the right side of mouse. Drug was orally administered at dosages of 5 mg/kg, 15 mg/kg, 45 mg/kg to the mice, once a day, for 2 weeks when average tumor size reached 75 to 150 mm^3. The size of the tumor was measured every other day.

786-O cell or A549 cell = assay: Cell morphology and survival rate after 4 to 8 hours incubation; assay type: cell-based, human; conditions: for cell survival: 786-O cell or A549 cell, incubated for 8 hours; for cell morphology: cancer cells incubated for 4 hours
in vivo [4] = assay type: in vivo; set-up: AUCpo: unit not given beside the values; conditions: mouse, in vivo
Text: Animal experiments: 24 mice in each group were divided into 8 sub-groups.

[5] = system: A549 human non-small cell lung cancer cell line; assay: 72-hour (long term) cell killing effects; assay type: cell-based; conditions: CCK8
Description: Cell lines and Culture: Cell line A549 was cultured in DMEM medium (Gibco, Life Technologies, China). 10% HI fetal bovine serum was purchased from Gibco, Life Technologies, USA and 1% penicillin/streptomycin was obtained from Hyclone.
as §1, with “0.02 μM” for “0.02”
Processing of Compounds: For in vitro tests, compounds were directly dissolved in 10 mM DMSO and stored at −20° C.

[6] = Acute toxicity test: maximum tolerance dosage (MTD) determination; assay type: in vivo, BALB/c mice
Description: Methods: Femal BALB/c mice, 4-5 weeks old, weighted greater than 17 g, were used for the test. […] The body weights and conditions of the mice were recorded.
In contrast, the body weights of mice in compound 2 group increased 6.0% in average.
To further explore the toxicity of the compounds, blood was collected after 14-day treatment of drugs and critical biochemical index were analyzed.

pSTAT3 = assay: Effects on STAT3 phosphorylation in A549 cell line; assay type: cell-based, human; conditions: 10 μM
Description: as §2

[7] = blood after 14-day treatment, 200 mg/kg
[8] = oral once a day for 14 days, 175 mg/kg
[9] = repeated test, oral once a day, 200 mg/kg

CCN(CC)CCNC(=O)c1c(C)[nH]c(C=C2C(=O)N(CC(=O)OC(C)(C)C)c3ccc(F)cc32)c1C [Compound 1, N-[2-(diethylamino)ethyl]-5-[(5-fluoro-2-oxo-1-(t-butylcarboxymethyl)-2,3-indolin-3-ylmethylene)]-2,4-dimethyl-1H-pyrrolidine-3-carboxamide]
stability in the event of coexisting with biomass [1]: easy to degrade | IC50 values among several cell lines ([2]; 72 hours, CCK8, FIG. 5a-f): comparable | tumor killing effects / cytotoxicity ([2]; 72 hours, CCK8, FIG. 5a-f): relatively strong tumor killing effects | AUCiv (in vivo [3]; iv): 478.9 | Cl (in vivo [3]; iv): 267.5 mL/h | Cmax, times than that of the control (in vivo [3]; iv): approx. 5 times | RTE analysis: distribution proportions in organs (in vivo [3]; iv): increased distribution proportions in liver and spleen | Tmax (in vivo [3]; iv): 4.8 min | efficacy on tumor size (cancer cell xenograft): less efficacy | cell survival (786-O cell or A549 cell): mass cell death | cell morphology (786-O cell or A549 cell): changed to round and suffered from stress | AUCpo (in vivo [4]; po): 946.2 | Cl (in vivo [4]; po): 3848.9 mL/h | Tmax (in vivo [4]; po): 30 min | t1/2 (in vivo [4]; po): 176 min

CCN(CC)CCNC(=O)c1c(C)[nH]c(/C=C2\C(=O)N(COC(=O)N(C)C)c3ccc(F)cc32)c1C [Compound 6, N-[2-(diethylamino)ethyl]-5-[(5-fluoro-2-oxo-1-(N,N-dimethylaminocarboxymethyl)-2,3-indolin-3-ylmethylene)]-2,4-dimethyl-1H-pyrrolidine-3-carboxamide]
IC50 [5]: 8.46 µM

CCN(CC)CCNC(=O)c1c(C)[nH]c(/C=C2\C(=O)N(COC(=O)OC(C)(C)C)c3ccc(F)cc32)c1C [Compound 7, N-[2-(diethylamino)ethyl]-5-[(5-fluoro-2-oxo-1-(t-butoxycarboxymethyl)-2,3-indolin-3-ylmethylene)]-2,4-dimethyl-1H-pyrrolidine-3-carboxamide]
IC50 [5]: 1.79 µM

CCOC(=O)OCN1C(=O)/C(=C\c2[nH]c(C)c(C(=O)NCCN(CC)CC)c2C)c2cc(F)ccc21 [Compound 8]
IC50 [5]: 1.11 µM

CCN(CC)CCNC(=O)c1c(C)[nH]c(/C=C2\C(=O)N(COC(=O)C3CCCCC3)c3ccc(F)cc32)c1C [Compound 9, N-[2-(diethylamino)ethyl]-5-[(5-fluoro-2-oxo-1-(cyclohexylcarboxymethyl)-2,3-indolin-3-ylmethylene)]-2,4-dimethyl-1H-pyrrolidine-3-carboxamide]
IC50 [5]: 4 µM

CCN(CC)CCNC(=O)c1c(C)[nH]c(/C=C2\C(=O)N(COC(C)=O)c3ccc(F)cc32)c1C [Compound 10]
IC50 [5]: 7.46 µM

CCN(CC)CCNC(=O)c1c(C)[nH]c(/C=C2\C(=O)N(COC(=O)C3CC3)c3ccc(F)cc32)c1C [Compound 11]
IC50 [5]: 2.56 µM

CCN(CC)CCNC(=O)c1c(C)[nH]c(/C=C2\C(=O)N(COC(=O)C(C)C)c3ccc(F)cc32)c1C [Compound 12, N-[2-(diethylamino)ethyl]-5-[(5-fluoro-2-oxo-1-(isopropylcarboxymethyl)-2,3-indolin-3-ylmethylene)]-2,4-dimethyl-1H-pyrrolidine-3-carboxamide]
IC50 [5]: 9.07 µM

CCN(CC)CCNC(=O)c1c(C)[nH]c(/C=C2\C(=O)N(COC(=O)c3ccc(OC)cc3)c3ccc(F)cc32)c1C [Compound 13, N-[2-(diethylamino)ethyl]-5-[(5-fluoro-2-oxo-1-(p-methoxyphenylcarboxymethyl)-2,3-indolin-3-ylmethylene)]-2,4-dimethyl-1H-pyrrolidine-3-carboxamide]
IC50 [5]: 3 µM

CCN(CC)CCNC(=O)c1c(C)[nH]c(/C=C2\C(=O)Nc3ccc(F)cc32)c1C.O=C(O)C[C@H](O)C(=O)O [Sunitinib, reference compound]
blood glucose [6, 7]: decreased | levels of aspartate transaminase (AST) alanine aminotransferase (ALT) and cholinesterase (CHE) [6, 7]: significantly elevated | levels of lactate dehydrogenase (LDH), creatine kinase (CK) and creatine kinase-MB (CKMB) [6, 7]: elevated | levels of urate and blood urea nitrogen [6, 7]: increased | effects on the body weights ([6]; oral once a day for 14 days, 28 mg/kg and 70 mg/kg): little effects | average body weight reduce [6, 8]: 17.6% | condition of the mice [6, 8]: extremely weak | influence on body weight ([6]; repeated test, oral once a day, 100 mg/kg): body weights did not increase | average body weight reduce [6, 9]: 20% | condition of the mice [6, 9]: extremely weak | inhibition of pSTAT3 (pSTAT3): strong inhibition | tumor killing effects / cytotoxicity [2]: relatively strong tumor killing effects | IC50 values among several cell lines ([2]; 72 hours, CCK8, FIG. 5a-f): comparable | half-life (in vivo [3]; 5.14 mg/kg): 74.4 min | Tmax (in vivo [3]; iv, 5.14 mg/kg): 4.8 min | clearance (in vivo [3]; iv, 5.14 mg/kg): 4.51 mL/min | AUC (in vivo [3]; iv, 5.14 mg/kg, AUCall): 0.365 µg·h/mL | AUC (in vivo [3]; iv, AUCiv): 0.365 µg·h/mL | cell survival (786-O cell or A549 cell): did not affect cell survival | cell morphology (786-O cell or A549 cell): remained attached, elongate, and did not exhibit abnormal morphology | bioavailability (in vivo [4]): 15% | AUC (in vivo [4]; po): 0.214 µg·h/mL | bioavailability (in vivo [4]; po): 15.1% | AUC(0-inf) (in vivo [4]; po, 20 mg/kg): 0.0431 µg·h/mL | Cmax (in vivo [4]; po, 20 mg/kg): 9.58 ng/mL | Tmax (in vivo [4]; po, 20 mg/kg): 30 min | half-life (in vivo [4]; po, 20 mg/kg): 284 min
